Tests used:
[1] = tested on: S. aureus strain SafabF/GFP; assay: Liquid GFP reporter assay for fabF antisense revertants (Relative Fluorescence Index); assay type: cell-based, Staphylococcus aureus; conditions: for change of RFI with increasing xylose concentration: 0, 7 and 14 mM xylose, drug concentrations approximating 50% inhibition of growth in no-xylose cells, 16 hours
Text: The green fluorescent protein (GFP) reporter gene was used to identify fabF antisense revertants in liquid culture by the following method: S. aureus containing a plasmid encoding the antisense fabF DNA was used to develop an inducible GFP reporter system, where the GFP gene is transcriptionally silent until the fabF antisense containing plasmid DNA is deleted or rearranged. A plasmid, pM310, was constructed that consists of the fabF antisense vector (Forsyth et al, 2002), with a tetracycline repressor gene and its promoter (Geissendorfer et al., Appl. Microbiol. Biotechnol 1990, 33: 657-663) inserted downstream of the fabP antisense DNA. A second plasmid, pM302, was constructed that consists of the E. coli vector pUC19 (Gibco BRL) joined to the S. aureus vector pUB110 (ATCC 37015), through the EcoR1 and AatII restriction sites. At the pUC19 multicloning site, a GFP gene was inserted into the BamH1 and SalI restriction sites and a tetracycline operator containing promoter (Geissendorfer et al, 1990) was cloned into the EcoR1 and BamH1 sites. A S. aureus strain, SafabF/GFP, was constructed that contained both plasmids pM310 and pM302 and was resistant to chloramphenicol and kanamycin. SafabF/GFP was sensitive to xylose induction resulting in an increased sensitivity to cerulenin. In the presence of cerulenin, resistant revertants will be selected for, which have deleted the antisense vector, and along with this deletion, lost the tetracycline repressor gene. […] Revertants can be measured as a function of fluorescent readout relative to cell number.
To quantitatively measure the fabF revertants, a liquid assay was developed, where various concentrations of xylose were tested with various concentrations of the following test compounds: cerulenin, thiostrepton and ampicillin. […] A 96-well plate was used to measure growth of the culture and final absorbance after 16 hours of incubation at 37° C. […] The final absorbance as read at 590 nm (A590) and fluorescence of the GFP was measured by excitation at 485 nm wavelength and emission wavelength at 535 nm (E535), using a Tecan Spectrafluor Plus.
To detect a specific GFP response in the presence of a fabF selective inhibitor, cerulenin, the Relative Fluorescence Index (RFI) was calculated for each drug treatment and for each xylose treatment. The RFI is defined as E535/A590 ratio, normalized to the corresponding ratio calculated on no-xylose control cells within each drug test group. For instance, with 15 μg/ml cerulenin treatment, the E535/A590 ratio was calculated for 0, 7 and 14 mM xylose treated cells, and the ratio for each were divided by the E535/A590 ratio from the no-xylose treated cells. […]

[2] = tested on: S. aureus containing S1-1941, a plasmid expressing a xylose-inducible fabF anti-sense RNA; assay: Agar assay for fabF-acting substances: revertant colonies in the zone of inhibition; assay type: cell-based, Staphylococcus aureus; conditions: for appearance of revertant colonies / zone of growth inhibition on assay plate: 10 μL sample per well, thiotetramycin 1 mg/mL in DMSO, cerulenin 20 μg/mL in DMSO, kanamycin 100 μg/mL in water, xylose 23.6 mM, overnight 37° C., visual inspection
Protocol: S. aureus containing S1-1941, a plasmid expressing a xylose-inducible fabF anti-sense RNA (described in WO 00/44906 and in Forsyth et al., Mole. Microbiol. 2002, 43: 1387-1400), are inoculated into an LB broth culture medium supplemented with […] of chloramphenicol, and grown overnight at 37° C. with shaking (225 rpm). The culture is then diluted in the LB medium to a final optical density (λ=600 nm) of 0.3. Diluted cells (750 μL) are then added to a molten LB-agar medium (30 mL) supplemented with xylose (23.6 mM) and glucose (0.19 g/100 mL) and equilibrated at 48° C. The molten mixture is briefly mixed and is then poured onto sterile disposable polystyrene 86×128 mm dishes (NUNC Cat. No. 242811), after which a TSP (=transferable solid phase screening system) casting tray (NUNC Cat. No. 445497) is placed on top to cast wells. The dishes are allowed to cool down to room temperature for about 15 minutes and are then stored for no more than 2 days at 4° C. until ready for sample dispensing. Samples (10 μL) of one or more test substances (500 μM) and samples of controls, each dissolved in 100% DMSO, are subsequently dispensed into wells and the plates incubated overnight at 37° C. The incubated plates are then inspected visually for the appearance of revertant colonies to determine whether the test substance(s) act at the fabF protein.
The fabF-targeting control will produce revertant colonies in and around a zone of inhibition, and the non-fabF targeting control will produce a clear zone of inhibition (i.e., devoid of revertant colonies). The zones of inhibition of the test substances are compared to those of the controls to screen for fabF-acting substances.
The assay protocol set forth in Part A was employed to test whether thiotetramycin is a fabF-acting antibacterial agent. A 10 μL sample of thiotetramycin dissolved in 100% DMSO (1 mg/mL) was dispensed into one well of the plate. In addition, a 10 μL sample of cerulenin in 100% DMSO (20 μg/mL) and a 10 μL sample of kanamycin in water (100 μg/mL) were respectively dispensed into two wells as controls. After incubation as described in Part A, the plates were inspected visually for zones of bacterial growth.

Row | Compound | change of RFI with increasing xylose concentration [1] | appearance of revertant colonies / zone of growth inhibition on assay plate [2] | appearance of revertant colonies / zone of growth inhibition on assay plate ([2]; listed as Cerulenin) | maximum change of Relative Fluorescence Index (RFI) ([1]; 14 mM xylose and 15 μg/ml cerulenin, 16 hours at 37° C., normalized to no-xylose control cells) | appearance of revertant colonies / zone of growth inhibition on assay plate ([2]; listed as Thiotetramycin) | conclusion whether test substance is a fabF-acting antibacterial agent ([2]; from comparison with cerulenin and kanamycin controls)
1 | CC1(C)S[C@@H]2[C@H](NC(=O)[C@H](N)c3ccccc3)C(=O)N2[C@H]1C(=O)O [ampicillin] | No increase in RFI | – | – | – | – | –
2 | C/C=C/C/C=C/CCC(=O)[C@H]1O[C@H]1C(N)=O [cerulenin] | RFI increased with increasing xylose concentration | several visually observable revertant bacterial colonies | growth of revertant colonies in and around a zone of growth inhibition | 9 fold | – | –
3 | C=C(NC(=O)C(=C)NC(=O)c1csc(C2=N[C@@H]3c4csc(n4)[C@H]4NC(=O)c5csc(n5)[C@H]([C@](C)(O)[C@@H](C)O)NC(=O)[C@H]5CSC(=N5)/C(=C/C)NC(=O)[C@H]([C@@H](C)O)NC(=O)c5csc(n5)[C@]3(CC2)NC(=O)[C@H](C)NC(=O)C(=C)NC(=O)[C@H](C)NC(=O)[C@H]([C@@H](C)CC)N[C@@H]2C=Cc3c([C@H](C)O)cc(nc3[C@H]2O)C(=O)O[C@@H]4C)n1)C(N)=O [thiostrepton] | No increase in RFI | – | – | – | – | –
4 | thiotetramycin | – | several visually observable revertant bacterial colonies | – | – | growth of revertant colonies which appear as small white foci of growth in and around a zone of growth inhibition | selectively targets the fabF protein
